Test results taken from patent US12564644B2, “Cyclodextrin complexes of specialized proresolving mediators” (THETIS PHARMACEUTICALS LLC, priority 2022, dated 2026).
Values belong to the compound of their own block, whether it stands above or below them.

Columns and labels:
[1] = Long-term solid-state chemical stability by HPLC, 24 weeks accelerated conditions (Example 9); assay type: physicochemical; settings: for RvE1 Area % (error +/− 1%) Baseline: 40° C., 75% relative humidity, exposed to air; for % Change at Week 24 vs Baseline (degradation rate) / RvE1 Area % (error +/− 1%) Week 8 / RvE1 Area % (error +/− 1%) Week 16 / RvE1 Area % (error +/− 1%) Week 24: accelerated conditions
Description: The stability of RvE1-MgLys alone (“RvE1 Control”) and complexed with cyclodextrins (“RvE1 CD Complexes”) was evaluated. Samples of the test articles were placed in open test tubes and maintained at 40° C. and 75% relative humidity, exposed to air, for 16 weeks. […] Briefly, HPLC analysis was performed on a Halo Guard column (Halo C18 4.6×150 mm, 2.7 μm), mounted on an Agilent HPLC system equipped with a UV detector (272 nm detection). The mobile phase consisted of a gradient between solution A, water, and solution B, methanol, both containing 100 mM of ammonium formate at pH 4.0. The gradient program was 95-0% with respect to solution A and 5-100% with respect to solution B. The flow rate was 0.9 mL/min over 50 minutes. Lack of stability was indicated by a reduction in the area percent purity (area %) of the single major peak of RvE1 (retention time of 31.3 minutes) and the appearance of new HPLC peaks or an increase in the area % of pre-existing impurities. All HPLC measurements of RvE1 purity and degradant levels were calculated based on area percent relative to the detectable components of the molecule including isomers and epimers of RvE1, impurities and degradants induced by the test conditions.
A study of the chemical stability of both RvE1-Mg-Lys alone and sodium RvE1 (“Na-RvE1”) alone and complexed with cyclodextrins was evaluated over 24 weeks. Samples of the test articles as solids were placed in open test tubes and maintained at 40° C. and 75% relative humidity, exposed to air.

[2] = Chemical stability in solution (deionized water) by HPLC, 16 weeks accelerated conditions (Example 10); assay type: physicochemical; settings: for RvE1 Area % Baseline: 2 mg/ml of RvE1, 40° C., 75% relative humidity, exposed to air; for % Change at Week 16 vs Baseline / RvE1 Area % Week 8 / RvE1 Area % Week 16: 2 mg/ml of RvE1, accelerated conditions
Description: The stability of […] alone (“RvE1 Control”) and complexed with cyclodextrins (“RvE1 CD Complexes”) was evaluated. Samples of the test articles were placed in open test tubes and maintained at 40° C. and 75% relative humidity, exposed to air, for 16 weeks. […] Briefly, HPLC analysis was performed on a Halo Guard column (Halo C18 4.6×150 mm, 2.7 μm), mounted on an Agilent HPLC system equipped with a UV detector (272 nm detection). The mobile phase consisted of a gradient between solution A, water, and solution B, methanol, both containing 100 mM of ammonium formate at pH 4.0. The gradient program was 95-0% with respect to solution A and 5-100% with respect to solution B. The flow rate was 0.9 mL/min over 50 minutes. Lack of stability was indicated by a reduction in the area percent purity (area %) of the single major peak of RvE1 (retention time of 31.3 minutes) and the appearance of new HPLC peaks or an increase in the area % of pre-existing impurities. All HPLC measurements of RvE1 purity and degradant levels were calculated based on area percent relative to the detectable components of the molecule including isomers and epimers of RvE1, impurities and degradants induced by the test conditions. The chemical stability of […] or Na-RvE1 alone and complexed with cyclodextrins in solution was evaluated. Samples of the test articles dissolved in deionized water at a concentration of 2 mg/ml of RvE1 were placed in open test tubes and maintained at 40° C. and 75% relative humidity, exposed to air, over a period of 16 weeks.

[3] = Solid-state chemical stability by HPLC, 16 weeks accelerated conditions (Example 8); assay type: physicochemical
Description: The stability of […] alone (“RvE1 Control”) and complexed with cyclodextrins (“RvE1 CD Complexes”) was evaluated. Samples of the test articles were placed in open test tubes and maintained at 40° C. and 75% relative humidity, exposed to air, for 16 weeks. […] Briefly, HPLC analysis was performed on a Halo Guard column (Halo C18 4.6×150 mm, 2.7 μm), mounted on an Agilent HPLC system equipped with a UV detector (272 nm detection). The mobile phase consisted of a gradient between solution A, water, and solution B, methanol, both containing 100 mM of ammonium formate at pH 4.0. The gradient program was 95-0% with respect to solution A and 5-100% with respect to solution B. The flow rate was 0.9 mL/min over 50 minutes. Lack of stability was indicated by a reduction in the area percent purity (area %) of the single major peak of RvE1 (retention time of 31.3 minutes) and the appearance of new HPLC peaks or an increase in the area % of pre-existing impurities. All HPLC measurements of RvE1 purity and degradant levels were calculated based on area percent relative to the detectable components of the molecule including isomers and epimers of RvE1, impurities and degradants induced by the test conditions.

[4] = Solid-state physical stability, visual, ambient conditions 168 hours (Example 11); assay type: physicochemical; settings: open test tubes, 18-22° C., relative humidity 52% to 72%
Description: The solid-state physical stability of […] alone (“RvE1 Control”) […]-cyclodextrin complex (“RvE1 Complex”) was evaluated (FIG. 24A-D). Samples of the test articles as solids were placed in open test tubes under ambient conditions over a period of 168 hours, at temperature between 18-22° C. and relative humidity between 52% and 72%. The solid-state physical stability was assessed visually based on whether the substance retained its form as a solid powder or transitioned to a liquid form.

[5] = Oral pharmacokinetics, RvE1 in blood plasma after single oral gavage (Example 12); assay type: in vivo; settings: mice
Description: To establish the comparative oral pharmacokinetics (“PK”) of RvE1 MgLys alone (“RvE1 Control”) and RvE1 MgLys complexed with gamma-cyclodextrin (“RvE1 Complex”), a study was conducted to investigate RvE1 exposure in blood plasma following a single dose of RvE1 Control or RvE1 Complex administered via oral gavage at various timepoints up to 8 hours of 4 mg/kg of RvE1. Quantitative measurement of RvE1 in blood plasma was determined by HPLC-MS/MS performed on a Halo Guard column (Halo C18 4.6×150 mm, 2.7 μm), mounted on an Agilent HPLC system equipped with a UV detector (272 nm detection).
Sixty five (65) male C57B16 mice were randomized into 3 experimental groups at 8 weeks of age: baseline control (“Baseline”, n=5), RvE1 Control (n=30) and the RvE1 Complex (n=30). Prior to administration of test article, the mice in the Baseline group were sacrificed and blood was drawn to establish the endogenous levels of RvE1 in plasma. The 60 remaining mice received a single dose of RvE1 Control or RvE1 Complex. Five (5) mice in each group were sacrificed at each of the following timepoints to enable the determination of an RvE1 concentration-versus-time curve: 15 minutes, 30 minutes, 1, 2—, 4- and 8-hours post-dose. At the time of sacrifice blood was drawn into EDTA-treated tubes and immediately frozen.

[6] = Solid-state chemical stability by HPLC, 16 weeks accelerated conditions (Example 8); assay type: physicochemical; settings: 40° C., 75% relative humidity, exposed to air
[7] = accelerated conditions, baseline
[8] = accelerated conditions, week 16

RvE1 Area % (error +/− 1%) Baseline [1]: 96.2%
RvE1 Area % (error +/− 1%) Baseline ([1]; listed as Na-RvE1 control): 96.2%
% Change at Week 24 vs Baseline (degradation rate) [1]: 100.0%
% Change at Week 24 vs Baseline (degradation rate) ([1]; listed as Na-RvE1 control): 100%
RvE1 Area % (error +/− 1%) Week 8 [1]: 78.0%
RvE1 Area % (error +/− 1%) Week 16 [1]: 49.8%
RvE1 Area % (error +/− 1%) Week 24 ([1]; week 24): 0.0%
RvE1 Area % (error +/− 1%) Week 24 ([1]; week 24, listed as Na-RvE1 Control): 0%
RvE1 Area % Baseline [2]: 96.2%
% Change at Week 16 vs Baseline [2]: 80.7%
RvE1 Area % Week 8 [2]: 36.0%
RvE1 Area % Week 16 ([2]; week 16): 18.6%
RvE1 Area % Week 16 ([2]; week 16, listed as Na-RvE1 Control): 18.6%
Structure (SMILES): CC[C@@H](O)/C=C/C=C/C[C@@H](O)/C=C/C=C/C=C/[C@@H](O)CCCC(=O)[O-].[Na+] [Na-RvE1, sodium RvE1]

% Change at Week 16 vs Baseline (degradation rate) ([3]; 40° C., 75% relative humidity, exposed to air): 14.1%
RvE1 Area % Week 8 ([3]; 40° C., 75% relative humidity, exposed to air, week 8): 86.7%
RvE1 Area % Week 16 ([3]; 40° C., 75% relative humidity, exposed to air, week 16): 80.7%
# of Deg. Peaks ≥0.20% Baseline [3, 7]: 6
# of Deg. Peaks ≥1.00% Baseline [3, 7]: 2
# of Deg. Peaks ≥0.20% Week 8 ([3]; accelerated conditions, week 8): 19
# of Deg. Peaks ≥1.00% Week 8 ([3]; accelerated conditions, week 8): 4
# of Deg. Peaks ≥0.20% Week 16 [3, 8]: 19
# of Deg. Peaks ≥1.00% Week 16 [3, 8]: 8
RvE1 Area % Baseline ([3]; open test tubes, 40° C., 75% relative humidity, exposed to air, baseline): 94%
RvE1 Area % (error +/− 1%) Baseline ([1]; listed as RvE1 Mg-Lys): 94.8%
RvE1 Area % (error +/− 1%) Baseline ([1]; listed as RvE1 MgLys control): 94.8%
% Change at Week 24 vs Baseline (degradation rate) ([1]; listed as RvE1-MgLys control): 16.6%
% Change at Week 24 vs Baseline (degradation rate) ([1]; listed as RvE1 Mg-Lys): 16.6%
RvE1 Area % (error +/− 1%) Week 8 [1]: 88.4%
RvE1 Area % (error +/− 1%) Week 16 [1]: 82.3%
RvE1 Area % (error +/− 1%) Week 24 ([1]; week 24, listed as RvE1-MgLys Control): 79.1%
RvE1 Area % (error +/− 1%) Week 24 ([1]; week 24, listed as RvE1 Mg-Lys): 79.1%
RvE1 Area % Baseline [2]: 94.8%
% Change at Week 16 vs Baseline [2]: 45.7%
RvE1 Area % Week 8 [2]: 84.3%
RvE1 Area % Week 16 ([2]; week 16, listed as RvE1-MgLys Control): 51.5%
RvE1 Area % Week 16 ([2]; week 16, listed as RvE1 Mg-Lys): 51.5%
physical form, visual ([4]; 24 and 168 hours): gel-like substance
physical form, visual ([4]; 8 hours, listed as RvE1-Control): remained in powder form
physical form, visual ([4]; baseline): powder form
AUC (0 to 8 hrs) ([5]; 4 mg/kg of RvE1): 15.2 ng·h/mL
Cmax ([5]; 4 mg/kg of RvE1): 45.5 ng/mL
Tmax ([5]; 4 mg/kg of RvE1): 15 min
RvE1 plasma concentration 15 min ([5]; 4 mg/kg of RvE1, 15 min): 45.5 ng/mL
RvE1 plasma concentration 30 min ([5]; 4 mg/kg of RvE1, 30 min): 6.3 ng/mL
RvE1 plasma concentration 1 hr ([5]; 4 mg/kg of RvE1, 1 hr): 1.2 ng/mL
RvE1 plasma concentration 2 hr ([5]; 4 mg/kg of RvE1, 2 hr): 0.2 ng/mL
RvE1 plasma concentration 4 hr ([5]; 4 mg/kg of RvE1, 4 hr): 0.3 ng/mL
RvE1 plasma concentration 8 hr ([5]; 4 mg/kg of RvE1, 8 hr): 0.1 ng/mL
RvE1 Area % Week 16 ([6]; week 16, listed as RvE1-MgLys): 80.7%
RvE1 Area % Baseline ([6]; open test tubes, baseline, listed as RvE1-MgLys): 94.0%
Structure (SMILES): CC[C@@H](O)/C=C/C=C\C[C@@H](O)/C=C/C=C/C=C\[C@@H](O)CCCC(=O)O.CC[C@@H](O)/C=C/C=C\C[C@@H](O)/C=C/C=C/C=C\[C@@H](O)CCCC(=O)O.NCCCC[C@H](N)C(=O)[O-].NCCCC[C@H](N)C(=O)[O-].[Mg+2] [RvE1 Control, RvE1 magnesium dilysinate]
physical form, visual ([4]; 8 hours): began to agglomerate and turn a darker color
